Results published in US20250059171A1 (Hoffmann-La Roche Inc., priority 2021, published 2025).

Columns and labels:
SARS-CoV-2 3CLpro = SARS-CoV-2 3CLpro (Severe acute respiratory syndrome coronavirus 2, UniProt P0DTD1); assay: biochemical
MERS-CoV 3CLpro = MERS-CoV 3CLpro (Middle East respiratory syndrome-related coronavirus, UniProt K9N7C7); assay: biochemical
SARS-CoV 3CLpro = SARS-CoV 3CLpro (Severe acute respiratory syndrome coronavirus, UniProt P0C6X7); assay: biochemical
HCoV-229E 3CLpro = HCoV-229E 3CLpro (Human coronavirus 229E, UniProt P0C6X1); assay: HCoV-229E 3CLpro inhibition assay (FRET); type: biochemical
HCoV-229E 3CLpro, sequence (P0C6X1 2966-3267): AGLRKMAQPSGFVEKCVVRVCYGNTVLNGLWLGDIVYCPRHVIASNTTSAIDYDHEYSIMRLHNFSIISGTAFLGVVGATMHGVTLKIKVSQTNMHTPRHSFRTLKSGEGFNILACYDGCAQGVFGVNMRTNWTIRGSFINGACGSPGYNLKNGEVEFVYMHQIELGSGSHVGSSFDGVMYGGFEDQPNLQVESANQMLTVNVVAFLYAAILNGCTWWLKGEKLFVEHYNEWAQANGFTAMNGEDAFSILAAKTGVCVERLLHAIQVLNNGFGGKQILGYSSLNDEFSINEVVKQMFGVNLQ

MERS-CoV 3CLpro, sequence (K9N7C7 3248-3553): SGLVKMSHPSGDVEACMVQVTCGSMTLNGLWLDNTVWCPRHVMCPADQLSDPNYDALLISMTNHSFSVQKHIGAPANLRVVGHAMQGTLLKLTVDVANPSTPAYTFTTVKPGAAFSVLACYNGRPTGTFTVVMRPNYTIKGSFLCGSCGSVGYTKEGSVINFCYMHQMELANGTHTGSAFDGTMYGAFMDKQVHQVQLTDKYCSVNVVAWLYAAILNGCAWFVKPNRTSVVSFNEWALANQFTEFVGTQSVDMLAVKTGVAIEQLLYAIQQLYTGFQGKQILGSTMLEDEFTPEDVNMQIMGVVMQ

In the case of `CCC(CC)[C@H](NC(=O)C1CC(F)(F)C1)C(=O)N1C[C@H]2[C@@H]([C@H]1C(=O)NN(C[C@@H]1CCNC1=O)C(=O)[C@H](F)Cl)C2(C)C` [Example 130, N-[(1S)-1-[(1R,2S,5S)-2-[[[(2R)-2-chloro-2-fluoro-acetyl]-[[(3S)-2-oxopyrrolidin-3-yl]methyl]amino]carbamoyl]-6,6-dimethyl-3-azabicyclo[3.1.0]hexane-3-carbonyl]-2-ethyl-butyl]-3,3-difluoro-cyclobutanecarboxamide], the IC50 (SARS-CoV-2 3CLpro) is reported as 12 nM, the IC50 (MERS-CoV 3CLpro) is reported as 87 nM and the IC50 (SARS-CoV 3CLpro) is reported as 19 nM. It also gave an IC50 (HCoV-229E 3CLpro) of 32 nM.

`CCC(CC)[C@H](NC(=O)C(F)F)C(=O)N1C[C@H]2[C@@H]([C@H]1C(=O)NN(C[C@@H]1CCNC1=O)C(=O)[C@H](F)Cl)C2(C)C` [Example 131, N-[(1S)-1-[(1R,2S,5S)-2-[[[(2R)-2-chloro-2-fluoro-acetyl]-[[(3S)-2-oxopyrrolidin-3-yl]methyl]amino]carbamoyl]-6,6-dimethyl-3-azabicyclo[3.1.0]hexane-3-carbonyl]-2-ethyl-butyl]-2,2-difluoro-acetamide] showed an IC50 (SARS-CoV-2 3CLpro) of 10 nM, an IC50 (MERS-CoV 3CLpro) of 158 nM and an IC50 (SARS-CoV 3CLpro) of 14 nM. The IC50 (HCoV-229E 3CLpro) was 26 nM.

For `CCC(CC)[C@H](NC(=O)C1(F)CC1)C(=O)N1C[C@H]2[C@@H]([C@H]1C(=O)NN(C[C@@H]1CCNC1=O)C(=O)[C@H](F)Cl)C2(C)C` [Example 132, N-[(1S)-1-[(1R,2S,5S)-2-[[[(2R)-2-chloro-2-fluoro-acetyl]-[[(3S)-2-oxopyrrolidin-3-yl]methyl]amino]carbamoyl]-6,6-dimethyl-3-azabicyclo[3.1.0]hexane-3-carbonyl]-2-ethyl-butyl]-1-fluoro-cyclopropanecarboxamide], the IC50 (SARS-CoV-2 3CLpro) was 10 nM, the IC50 (MERS-CoV 3CLpro) was 106 nM and the IC50 (SARS-CoV 3CLpro) was 14 nM. The IC50 (HCoV-229E 3CLpro) was 25 nM.

In the case of `CCC(CC)[C@H](NC(=O)C1(F)CC1)C(=O)N1C[C@H]2[C@@H]([C@H]1C(=O)NN(C[C@@H]1CCNC1=O)C(=O)[C@@H](F)Cl)C2(C)C` [Example 133, N-[(1S)-1-[(1R,2S,5S)-2-[[[(2S)-2-chloro-2-fluoro-acetyl]-[[(3S)-2-oxopyrrolidin-3-yl]methyl]amino]carbamoyl]-6,6-dimethyl-3-azabicyclo[3.1.0]hexane-3-carbonyl]-2-ethyl-butyl]-1-fluoro-cyclopropanecarboxamide], the IC50 (SARS-CoV-2 3CLpro) is reported as 20 nM, the IC50 (MERS-CoV 3CLpro) is reported as 106 nM and the IC50 (SARS-CoV 3CLpro) is reported as 32 nM. It also gave an IC50 (HCoV-229E 3CLpro) of 40 nM.

For `CCC(CC)[C@H](NC(=O)C1CC(F)(F)C1)C(=O)N1C[C@@H]2CCC[C@@H]2[C@H]1C(=O)NN(C[C@@H]1CCNC1=O)C(=O)[C@H](F)Cl` [Example 134, N-[(1S)-1-[(3S,3aS,6aR)-3-[[[(2R)-2-chloro-2-fluoro-acetyl]-[[(3S)-2-oxopyrrolidin-3-yl]methyl]amino]carbamoyl]-3,3a,4,5,6,6a-hexahydro-1H-cyclopenta[c]pyrrole-2-carbonyl]-2-ethyl-butyl]-3,3-difluoro-cyclobutanecarboxamide], the IC50 (SARS-CoV-2 3CLpro) was 10 nM, the IC50 (MERS-CoV 3CLpro) was 97 nM and the IC50 (SARS-CoV 3CLpro) was 14 nM. It also gave an IC50 (HCoV-229E 3CLpro) of 36 nM.

With `CCC(CC)[C@H](NC(=O)C1CC1)C(=O)N1C[C@@H]2CCC[C@@H]2[C@H]1C(=O)NN(C[C@@H]1CCNC1=O)C(=O)[C@H](F)Cl` [Example 135, N-[(1S)-1-[(3S,3aS,6aR)-3-[[[(2R)-2-chloro-2-fluoro-acetyl]-[[(3S)-2-oxopyrrolidin-3-yl]methyl]amino]carbamoyl]-3,3a,4,5,6,6a-hexahydro-1H-cyclopenta[c]pyrrole-2-carbonyl]-2-ethyl-butyl]cyclopropanecarboxamide] the IC50 (SARS-CoV-2 3CLpro) was 11 nM, the IC50 (MERS-CoV 3CLpro) was 131 nM and the IC50 (SARS-CoV 3CLpro) was 15 nM. For the same compound, the IC50 (HCoV-229E 3CLpro) was 39 nM.

`CCC(CC)[C@H](NC(=O)C(F)F)C(=O)N1C[C@@H]2CCC[C@@H]2[C@H]1C(=O)NN(C[C@@H]1CCNC1=O)C(=O)[C@H](F)Cl` [Example 136, N-[(1S)-1-[(3S,3aS,6aR)-3-[[[(2R)-2-chloro-2-fluoro-acetyl]-[[(3S)-2-oxopyrrolidin-3-yl]methyl]amino]carbamoyl]-3,3a,4,5,6,6a-hexahydro-1H-cyclopenta[c]pyrrole-2-carbonyl]-2-ethyl-butyl]-2,2-difluoro-acetamide] gave an IC50 (SARS-CoV-2 3CLpro) of 16 nM, an IC50 (MERS-CoV 3CLpro) of 74 nM and an IC50 (SARS-CoV 3CLpro) of 15 nM. It also gave an IC50 (HCoV-229E 3CLpro) of 55 nM.

For `CCC(CC)[C@H](NC(=O)C1(F)CC1)C(=O)N1CC(C)(C)C[C@H]1C(=O)NN(C[C@@H]1CCNC1=O)C(=O)[C@H](F)Cl` [Example 138, N-[(1S)-1-[(2S)-2-[[[(2R)-2-chloro-2-fluoro-acetyl]-[[(3S)-2-oxopyrrolidin-3-yl]methyl]amino]carbamoyl]-4,4-dimethyl-pyrrolidine-1-carbonyl]-2-ethyl-butyl]-1-fluoro-cyclopropanecarboxamide], the IC50 (SARS-CoV-2 3CLpro) was 16 nM, the IC50 (MERS-CoV 3CLpro) was 283 nM and the IC50 (SARS-CoV 3CLpro) was 25 nM. It also gave an IC50 (HCoV-229E 3CLpro) of 54 nM.

`CCC(CC)[C@H](NC(=O)C(F)F)C(=O)N1CC(C)(C)C[C@H]1C(=O)NN(C[C@@H]1CCNC1=O)C(=O)[C@H](F)Cl` [Example 139, N-[(1S)-1-[(2S)-2-[[[(2R)-2-chloro-2-fluoro-acetyl]-[[(3S)-2-oxopyrrolidin-3-yl]methyl]amino]carbamoyl]-4,4-dimethyl-pyrrolidine-1-carbonyl]-2-ethyl-butyl]-2,2-difluoro-acetamide] gave an IC50 (SARS-CoV-2 3CLpro) of 14 nM, an IC50 (MERS-CoV 3CLpro) of 139 nM and an IC50 (SARS-CoV 3CLpro) of 18 nM. It also gave an IC50 (HCoV-229E 3CLpro) of 35 nM.

In the case of `CCC(C)(C)[C@H](NC(=O)[C@H](C)F)C(=O)N1C[C@H]2[C@@H]([C@H]1C(=O)NN(C[C@@H]1CCNC1=O)C(=O)[C@H](F)Cl)C2(C)C` [Example 140, (2S)—N-[(1S)-1-[(1R,2S,5S)-2-[[[(2R)-2-chloro-2-fluoro-acetyl]-[[(3S)-2-oxopyrrolidin-3-yl]methyl]amino]carbamoyl]-6,6-dimethyl-3-azabicyclo[3.1.0]hexane-3-carbonyl]-2,2-dimethyl-butyl]-2-fluoro-propanamide], the IC50 (SARS-CoV-2 3CLpro) is reported as 11 nM, the IC50 (MERS-CoV 3CLpro) is reported as 94 nM and the IC50 (SARS-CoV 3CLpro) is reported as 25 nM. It also gave an IC50 (HCoV-229E 3CLpro) of 31 nM.

In the case of `CCC(C)(C)[C@H](NC(=O)[C@@H](C)F)C(=O)N1C[C@H]2[C@@H]([C@H]1C(=O)NN(C[C@@H]1CCNC1=O)C(=O)[C@H](F)Cl)C2(C)C` [Example 141, (2R)—N-[(1S)-1-[(1R,2S,5S)-2-[[[(2R)-2-chloro-2-fluoro-acetyl]-[[(3S)-2-oxopyrrolidin-3-yl]methyl]amino]carbamoyl]-6,6-dimethyl-3-azabicyclo[3.1.0]hexane-3-carbonyl]-2,2-dimethyl-butyl]-2-fluoro-propanamide], the IC50 (SARS-CoV-2 3CLpro) is reported as 10 nM, the IC50 (MERS-CoV 3CLpro) is reported as 117 nM and the IC50 (SARS-CoV 3CLpro) is reported as 15 nM. It also gave an IC50 (HCoV-229E 3CLpro) of 35 nM.

With `CCC(C)(C)[C@H](NC(=O)C1CC1)C(=O)N1C[C@H]2[C@@H]([C@H]1C(=O)NN(C[C@@H]1CCNC1=O)C(=O)[C@H](F)Cl)C2(C)C` [Example 142, N-[(1S)-1-[(1R,2S,5S)-2-[[[(2R)-2-chloro-2-fluoro-acetyl]-[[(3S)-2-oxopyrrolidin-3-yl]methyl]amino]carbamoyl]-6,6-dimethyl-3-azabicyclo[3.1.0]hexane-3-carbonyl]-2,2-dimethyl-butyl]cyclopropanecarboxamide] the IC50 (SARS-CoV-2 3CLpro) was 10 nM, the IC50 (MERS-CoV 3CLpro) was 83 nM and the IC50 (SARS-CoV 3CLpro) was 13 nM. It also gave an IC50 (HCoV-229E 3CLpro) of 31 nM.

Work on `CCC(C)(C)[C@H](NC(=O)C1(F)CC1)C(=O)N1C[C@H]2[C@@H]([C@H]1C(=O)NN(C[C@@H]1CCNC1=O)C(=O)[C@H](F)Cl)C2(C)C` [Example 143, N-[(1S)-1-[(1R,2S,5S)-2-[[[(2R)-2-chloro-2-fluoro-acetyl]-[[(3S)-2-oxopyrrolidin-3-yl]methyl]amino]carbamoyl]-6,6-dimethyl-3-azabicyclo[3.1.0]hexane-3-carbonyl]-2,2-dimethyl-butyl]-1-fluoro-cyclopropanecarboxamide] yielded an IC50 (SARS-CoV-2 3CLpro) of 8 nM, an IC50 (MERS-CoV 3CLpro) of 86 nM and an IC50 (SARS-CoV 3CLpro) of 13 nM. It also gave an IC50 (HCoV-229E 3CLpro) of 28 nM.

With `CCC(C)(C)[C@H](NC(=O)C(F)F)C(=O)N1C[C@H]2[C@@H]([C@H]1C(=O)NN(C[C@@H]1CCNC1=O)C(=O)[C@H](F)Cl)C2(C)C` [Example 144, N-[(1S)-1-[(1R,2S,5S)-2-[[[(2R)-2-chloro-2-fluoro-acetyl]-[[(3S)-2-oxopyrrolidin-3-yl]methyl]amino]carbamoyl]-6,6-dimethyl-3-azabicyclo[3.1.0]hexane-3-carbonyl]-2,2-dimethyl-butyl]-2,2-difluoro-acetamide] the IC50 (SARS-CoV-2 3CLpro) was 11 nM, the IC50 (MERS-CoV 3CLpro) was 112 nM and the IC50 (SARS-CoV 3CLpro) was 15 nM. The IC50 (HCoV-229E 3CLpro) was 33 nM.

`CCC(C)(C)[C@H](NC(=O)C1(F)CC1)C(=O)N1C[C@H]2[C@@H]([C@H]1C(=O)NN(C[C@@H]1CCNC1=O)C(=O)[C@@H](F)Cl)C2(C)C` [Example 145, N-[(1S)-1-[(1R,2S,5S)-2-[[[(2S)-2-chloro-2-fluoro-acetyl]-[[(3S)-2-oxopyrrolidin-3-yl]methyl]amino]carbamoyl]-6,6-dimethyl-3-azabicyclo[3.1.0]hexane-3-carbonyl]-2,2-dimethyl-butyl]-1-fluoro-cyclopropanecarboxamide] was tested, and the IC50 (SARS-CoV-2 3CLpro) was 18 nM, the IC50 (MERS-CoV 3CLpro) was 152 nM and the IC50 (SARS-CoV 3CLpro) was 27 nM. The IC50 (HCoV-229E 3CLpro) was 77 nM.

In the case of `CCC(C)(C)[C@H](NC(=O)C1CC1)C(=O)N1C[C@H]2[C@@H]([C@H]1C(=O)NN(C[C@@H]1CCNC1=O)C(=O)[C@@H](F)Cl)C2(C)C` [Example 147, N-[(1S)-1-[(1R,2S,5S)-2-[[[(2S)-2-chloro-2-fluoro-acetyl]-[[(3S)-2-oxopyrrolidin-3-yl]methyl]amino]carbamoyl]-6,6-dimethyl-3-azabicyclo[3.1.0]hexane-3-carbonyl]-2,2-dimethyl-butyl]cyclopropanecarboxamide], the IC50 (SARS-CoV-2 3CLpro) is reported as 12 nM, the IC50 (MERS-CoV 3CLpro) is reported as 89 nM and the IC50 (SARS-CoV 3CLpro) is reported as 16 nM. It also gave an IC50 (HCoV-229E 3CLpro) of 40 nM.
